Measurements from US20260216205A1, “SYSTEMS AND METHODS FOR TREATING HEART FAILURE WITH PRESERVED EJECTION FRACTION” (INVIVOSCIENCES INC., priority 2023, published 2026).
“Also recorded” adds a separate entry of the source.

Experiments:
[1] = system: alpha-1 adrenoceptors; conditions: read-out: IC50, affinity for alpha-1 adrenoceptors; cited from earlier work
[2] = system: human micro-heart tissues (NuHeart); test: Mature NuHeart micro-heart tissue with and without TGFβ: length-tension, contractile force, ISO response, αSM actin; type: cell-based
Protocol: FIG. 11C-11F graphically show length-tension relationships of cardiac systolic ([…]) and diastolic (FIG. 10E, FIG. 10F) curves, monitored>30 days with and without TGFβ (10 ng/mL).
FIG. 11G is a bar graph illustrating that the positive inotropic response to ISO ([…]) were compared with and without TGFβ (bars=s.d., n=7) at the end of 35-day tissue development.
FIG. 11I-11J show profiles of cardiac contractile force with and without TGFβ.
A semi-automated, multi-point quality control (QC) production-process fabricated mature micro-heart tissues in 96-well format. The patient-derived (or gene-edited) iPSCs that were passed the QC test of pluripotency and purity go through the next step. This robust protocol of iPSC differentiation produced cardiomyocytes and non-muscle cells. Various parameters were optimized to produce highly purified (>95%) cardiomyocytes and cardiac non-muscle cells. Various differentiation techniques, a culture robot ACTRO™, and culture media may be used for cardiomyocyte (CM) differentiation and maintenance development and validation. FIGS. 9A-9D show mass-produced micro-heart tissues and their mature phenotype, which were assessed for their response to various positive inotropic and chronotropic agents (FIGS. 10A-10D). To grow mature micro-heart tissue, physiological (15% strain=~2.13 μm sarcomere length) stretching cycles were applied, in addition to constant bi-phasic, low energy (5-10 V, 1 ms duration) electrical stimulation, and maturation medium containing appropriate concentrations and combinations of fatty acids and other factors, including triiodothyronine, dexamethasone, taurine, creatine, and L-carnitine were used.
Human micro-heart tissues cultured for 35 days with electrical stimulation matured and loose its spontaneous beating. Myocardial fibrosis is more prevalent in HFpEF than in control, and Transforming growth factor beta (TGFβ) is a major profibrotic factor. […] The elevated diastolic stiffness and loss of contractile reserve are common in HFpEF patients. Some HFpEF patients, including hypertrophic cardiomyopathy, show a hypercontractile phenotype. A TGF-β signaling pathway in the pathogenesis of diabetes mellitus (DM) is well-known. Moreover, in rat models, the presence of diabetes led to the induction of a fetal gene program, typically seen in the setting of TGF-β over-expression and hypertrophy. Therefore, human induced pluripotent stem cell (iPSC) derived micro-heart tissue (NuHeart™ micro-heart tissue) will be used with TGFβ-treatment as a base of the proposed studies.
A force probe stretching approach was used to record the length-tension relationship to analyze cardiac contractility and stiffness of micro-heart tissue. Micro force-transducers (FIG. 11) of the mechanical assay device, Palpator™, measured resistance forces that were required to stretch micro-heart tissue growing in 96-well plates. As the probe moved down by a motorized arm, samples' cardiac contractile and baseline forces were measured at different tissue lengths. Sarcomere length was calibrated to strain (% of stretch over original sample length) according to a published protocol (Asnes, C. F. et al. Biophys. J. 2006. 91(5): pp. […]). (Fourier analysis of sarcomere patterns in fixed micro-heart tissue). In addition, other biological indicators such as calcium transients and action potential are measured using biological indicator dyes and high throughput microplate readers (FIGS. 13A-C). For example, micro-heart tissue with cardiomyocytes derived from gene-edited iPSC-derived cardiomyocytes was fabricated with a cardiac troponin T R92Q mutation (familial hypertrophic cardiomyopathy, i.e., “[…]”).

[3] = system: engineered heart tissues (EHTs) derived from human induced pluripotent stem cells; test: Long-term fasudil effects on engineered heart tissues (EHTs) with and without TGFβ, stress versus strain; type: cell-based
Protocol: FIGS. 16A-16D graphically illustrate the long-term effects of fasudil. The rates of stretch relative to the unstretched tissue length are depicted as strain (error bar=standard deviation of error). Number of samples are 2 or 4 in each condition.
To exemplify this patient stratification process, engineered heart tissues (EHTs) were prepared, the tissues containing cardiac fibroblasts (10% of cardiomyocytes at fabrication) derived from human induced pluripotent stem cells (iPSCs). Five days post-fabrication, one half of the engineered heart tissues (EHTs) was cultured regularly (FIG. 16A and FIG. 16C), and the other half was treated with 1 ng/mL TGFβ (FIG. 16B and FIG. 16D). […] The effect was clearly represented in the elevated passive stress-strain curve and its slope represented by the closed circles (0 μM fasudil data points) in FIG. 16C and FIG. 16D.
After 15 days, the EHTs, both with and without TGFβ treatment, were administered fasudil at concentrations of […] (FIGS. 16A-16D). […] However, by day 29, fasudil reduced cardiac contractility in EHTs, irrespective of TGFβ treatment.

[4] = system: tissue constructs reconstituted with human fibroblasts / myofibroblasts; test: Biomechanical phenotyping assay: isometric force on stretched bioengineered tissue constructs; type: cell-based
Excerpt: Fasudil (FIG. 1) is a small molecule inhibitor of Rho-kinase (ROCK) that regulates its downstream signal transduction pathways and biological activities, including smooth muscle cells' contractility. InvivoSciences's biomechanical phenotyping assay recorded isometric force by stretching bioengineered tissue-constructs (see, U.S. Pat. No. 10,732,174). The tissue constructs were reconstituted with human fibroblasts that recapitulate connective tissues. Those tissue constructs reconstituted with myofibroblasts recapitulate connective tissue developing fibrosis.

[5] = intravenous formulations; Satoh et al., Life Sci 2001; cited from earlier work
[6] = system: human micro-heart tissues (iPSC-derived cardiomyocytes and non-muscle cells, mainly fibroblasts); test: Biomechanical assay (length-tension) on micro-heart tissue constructs; type: cell-based; conditions: for micro-heart tissue construct's stiffness (diastolic/passive stiffness): FIG. 7B
Excerpt: The micro-heart tissue fabrication process produced micro-heart tissues using human cardiomyocytes derived from induced pluripotent stem cells (iPSCs) and non-muscle cells, mainly fibroblasts. Therefore, fasudil is a promising drug candidate to reduce elevated diastolic stiffness of patients with heart failure with preserved ejection fraction (HFpEF). The development of fibrosis in the heart is observed in various types of cardiomyopathies, and heart failure (HF). Myocardial interstitial fibrosis, for example, contributes to left ventricular dysfunction leading to the development of heart failure. Fibrotic myocardium becomes stiffer than healthy tissue to develop diastolic dysfunction. Fasudil targets Rho-kinase (ROCK) that regulates the activity of non-muscle myosin independent of calcium homeostasis. Human cardiac fibroblasts express ROCK1 and ROCK2, which both regulate non-muscle cell contractility similarly. The reduction of ROCK2 had notable effects on the profibrotic gene (FIGS. 7A-B) and protein expression (FIGS. 7A-B).
A force probe stretching approach was used to record the length-tension relationship to analyze cardiac contractility and stiffness of micro-heart tissue. Micro force-transducers (FIG. 11) of the mechanical assay device, Palpator™, measured resistance forces that were required to stretch micro-heart tissue growing in 96-well plates. As the probe moved down by a motorized arm, samples' cardiac contractile and baseline forces were measured at different tissue lengths. Sarcomere length was calibrated to strain (% of stretch over original sample length) according to a published protocol (Asnes, C. F. et al. Biophys. J. 2006. 91(5): pp. 1800-1180). (Fourier analysis of sarcomere patterns in fixed micro-heart tissue). In addition, other biological indicators such as calcium transients and action potential are measured using biological indicator dyes and high throughput microplate readers (FIGS. 13A-C). […]

[7] = system: engineered heart tissues (EHTs) derived from human induced pluripotent stem cells; test: Long-term fasudil effects on engineered heart tissues (EHTs) with and without TGFβ, stress versus strain; type: cell-based; conditions: short-term administration (less than 24 hours)
[8] = NuHeart micro-heart tissue without TGFβ
[9] = long-term administration (3-14 days)
[10] = TGFβ-treated micro-heart (10 ng/mL, monitored >30 days)

## CN1CCN(C2=Nc3cc(F)ccc3Cc3ccccc32)CC1 [Fluperlapine]
[1]
  IC50: ~10 nM

## CC(C)NCC(O)c1ccc(O)c(O)c1 (stereo not shown) [ISO, isoproterenol]
[2]; [8]
  contractile amplitude: increased
  duration of contraction (chrotropic response): shortened
[2]; after isoproterenol (ISO) treatment
  response of mature micro-heart tissues: positive inotropic and chronotropic responses
[2]; micro-heart tissue with TGFβ
  response of contractile force to ISO: blunted response

## O=S(=O)(c1cccc2cnccc12)N1CCCNCC1 [fasudil, Fasudil]
[3]; 10 μM fasudil, by day 29
  cardiac contractility in TGFβ-treated EHTs: substantially reduce
[3]; TGFβ-treated (1 ng/mL) EHTs
  effect on passive stiffness, TGFβ-treated tissues versus untreated: more pronounced effect
[3]; both with and without TGFβ (1 ng/mL) treatment, fasudil 1, 3, 10 µM
  passive stiffness of EHTs: effectively reduced
[3]; by day 29, irrespective of TGFβ treatment
  cardiac contractility in EHTs: reduced
[3]; [9]
  cardiac contractility in EHTs: reduce
  passive stiffness in EHTs: reduce
[3]; one day after treatment (data not shown)
  impact on cardiac contractility: less significant
[4]
  contractility of tissue constructs: reduced
  tissue stiffness of tissue constructs: reduced
[5]
  plasma concentration: approximately 0.36 μM
[6]; FIG. 7A
  cardiac contractility of the micro-heart tissues: did not change
[6]
  micro-heart tissue construct's stiffness (diastolic/passive stiffness): reduced the micro-heart tissue construct's stiffness dose-dependently
[6]; listed as Fasudil
  micro-heart tissue construct's stiffness (diastolic/passive stiffness): reduced
[7]
  cardiac contractility in EHTs: without significantly affecting
  passive stiffness in EHTs: effectively reduced

## Transforming growth factor beta [TGFβ]
[2]; TGFβ treated sample, Western blot
  αSM actin expression: increased expression; also recorded: elevated
[2]; [10]
  cardiac contractility of micro-heart: increasing
  diastolic stress (stiffening) of micro-heart: increasing
[2]; chronic TGFβ treatment
  ISO-induced positive inotropic and chronotropic responses: impaired
[3]; 1 ng/mL TGFβ from five days post-fabrication, 0 μM fasudil
  passive stiffness of EHTs: increased
